We go through 20 compounds from ChEMBL document CHEMBL1140652 (Bioorg Med Chem Lett, 2007).

Converted amounts (≈) assume the structure as drawn.

The nature of series [1]: physchem. Particulars: potassium phosphate buffer, pH 6.5.
Description: Aqueous solubility in potassium phosphate buffer at pH 6.5 by laser nephrometry
The subject of series [2] is Escherichia coli. The experiment in a line: microbe, parasite or virus in culture.
Description: Inhibition of transcription and translation activity in Escherichia coli by luciferase reporter assay
For series [3], the system named is Staphylococcus aureus. The experiment in a line: microbe, parasite or virus in culture. Particulars: SA1.
Description: Antibacterial activity against Staphylococcus aureus UC76 SA1
The subject of series [4] is Streptococcus pneumoniae. The experiment in a line: microbe, parasite or virus in culture. Particulars: SV1.
Description: Antibacterial activity against Streptococcus pneumoniae SV1 SP3
Series [5] concerns Enterococcus faecalis. The experiment in a line: microbe, parasite or virus in culture.
Description: Antibacterial activity against Enterococcus faecalis MGH2 EF1-1
The test system of series [6] is Haemophilus influenzae. The experiment in a line: microbe, parasite or virus in culture.
Description: Antibacterial activity against Haemophilus influenzae HI3542
Series [7] relates to Moraxella catarrhalis. The experiment in a line: microbe, parasite or virus in culture.
Description: Antibacterial activity against Moraxella catarrhalis BC-3531

As a reminder, the kinetic solubility is the concentration staying in solution when a stock, usually in DMSO, is diluted into the medium. Broadly, the IC50 is the concentration at which inhibition is half-maximal. Lower therefore signals higher potency. The compound `CC(=O)NC[C@H]1CN(c2ccc3c(c2)CCCc2cn[nH]c2-3)C(=O)O1` showed a solubility (kinetic) in series [1] of 14 µg/mL (≈ 41.1 µM). In series [2], this compound had an IC50 of 450 nM. Besides, the MIC in series [3] worked out at 0.5 µg/mL (≈ 1.47 µM); in series [4], 0.25 µg/mL (≈ 0.734 µM); in series [5], 0.25 µg/mL (≈ 0.734 µM); in series [6] it was 2 µg/mL (≈ 5.88 µM); in series [7], 2 µg/mL (≈ 5.88 µM).

On to `COc1ccc(CNc2n[nH]c3c2CCCc2cc(N4C[C@H](CNC(C)=O)OC4=O)ccc2-3)cc1`, for which the IC50 in series [2] was 2200 nM. Moreover, the MIC in series [3] is 1 µg/mL (≈ 2.1 µM); in series [4] it was 0.5 µg/mL (≈ 1.05 µM); in series [5], 1 µg/mL (≈ 2.1 µM); in series [6], 8 µg/mL (≈ 16.8 µM); in series [7], 4 µg/mL (≈ 8.41 µM).

Consider `COCCNc1n[nH]c2c1CCCc1cc(N3C[C@H](CNC(C)=O)OC3=O)ccc1-2`, for which the IC50 in series [2] is 2600 nM. Also, the MIC in series [3] was determined as 2 µg/mL (≈ 4.84 µM); in series [4] it was 1 µg/mL (≈ 2.42 µM); in series [5], 2 µg/mL (≈ 4.84 µM); in series [6], 1 µg/mL (≈ 2.42 µM); in series [7], 8 µg/mL (≈ 19.3 µM).

`CC(=O)NC[C@H]1CN(c2ccc3c(c2)CCCc2c(NCCN)n[nH]c2-3)C(=O)O1` returned a kinetic solubility in series [1] greater than 70 µg/mL. Half-maximal inhibition in series [2] (IC50) required 800 nM. For the same compound, the MIC worked out at 32 µg/mL (≈ 80.3 µM) in series [3]; 4 µg/mL (≈ 10 µM) in series [4]; 16 µg/mL (≈ 40.2 µM) in series [5]; 16 µg/mL (≈ 40.2 µM) in series [6]; 4 µg/mL (≈ 10 µM) in series [7].

As to `CC(=O)NC[C@H]1CN(c2ccc3c(c2)CCCc2c(N)n[nH]c2-3)C(=O)O1`, half-maximal inhibition in series [2] (IC50) was put at 1200 nM. For the same compound, the MIC is 4 µg/mL (≈ 11.3 µM) in series [3]; 0.5 µg/mL (≈ 1.41 µM) in series [4]; 2 µg/mL (≈ 5.63 µM) in series [5]; 4 µg/mL (≈ 11.3 µM) in series [6]; 2 µg/mL (≈ 5.63 µM) in series [7].

In series [1], `CNc1n[nH]c2c1CCCc1cc(N3C[C@H](CNC(C)=O)OC3=O)ccc1-2` came in with a kinetic solubility greater than 70 µg/mL. The compound further registered a concentration for half-maximal inhibition (IC50) in series [2] of 1000 nM. Besides, the MIC in series [3] is 2 µg/mL (≈ 5.41 µM); in series [4], 0.5 µg/mL (≈ 1.35 µM); in series [5], 1 µg/mL (≈ 2.71 µM); in series [6], 4 µg/mL (≈ 10.8 µM); in series [7], 2 µg/mL (≈ 5.41 µM).

Compound `CCN(CC)CCCNc1n[nH]c2c1CCCc1cc(N3C[C@H](CNC(C)=O)OC3=O)ccc1-2` returned an IC50 in series [2] of 13000 nM. In addition, the MIC in series [3] is 64 µg/mL (≈ 137 µM); in series [4], 4 µg/mL (≈ 8.54 µM); in series [5] it was 32 µg/mL (≈ 68.3 µM); in series [6], 32 µg/mL (≈ 68.3 µM); in series [7], 32 µg/mL (≈ 68.3 µM).

In turn, `CCNc1n[nH]c2c1CCCc1cc(N3C[C@H](CNC(C)=O)OC3=O)ccc1-2` yielded an IC50 in series [2] of 1300 nM. Also, the MIC came to 1 µg/mL (≈ 2.61 µM) in series [3]; 0.25 µg/mL (≈ 0.652 µM) in series [4]; 1 µg/mL (≈ 2.61 µM) in series [5]; 4 µg/mL (≈ 10.4 µM) in series [6]; 4 µg/mL (≈ 10.4 µM) in series [7].

`CC(=O)NC[C@H]1CN(c2ccc3c(c2)CCCc2c(NC(C)C)n[nH]c2-3)C(=O)O1` registered an IC50 in series [2] of 2200 nM. For the same compound, the MIC in series [3] was 4 µg/mL (≈ 10.1 µM); in series [4], 0.5 µg/mL (≈ 1.26 µM); in series [5], 2 µg/mL (≈ 5.03 µM); in series [6], 8 µg/mL (≈ 20.1 µM); in series [7], 8 µg/mL (≈ 20.1 µM).

In series [2], `CCCNc1n[nH]c2c1CCCc1cc(N3C[C@H](CNC(C)=O)OC3=O)ccc1-2` had an IC50 of 2500 nM. For the same compound, the MIC in series [3] amounted to 2 µg/mL (≈ 5.03 µM); in series [4], 0.25 µg/mL (≈ 0.629 µM); in series [5] it was 1 µg/mL (≈ 2.52 µM); in series [6] it was 4 µg/mL (≈ 10.1 µM); in series [7], 8 µg/mL (≈ 20.1 µM).

Regarding `CC(=O)NC[C@H]1CN(c2ccc3c(c2)CCCc2c(Nc4ccccc4)n[nH]c2-3)C(=O)O1`, the MIC in series [3] came to 1 µg/mL (≈ 2.32 µM); in series [4], 0.5 µg/mL (≈ 1.16 µM); in series [5] it was 0.5 µg/mL (≈ 1.16 µM); in series [6], 4 µg/mL (≈ 9.27 µM); in series [7], 2 µg/mL (≈ 4.64 µM).

`CC(=O)NC[C@H]1CN(c2ccc3c(c2)CCCc2c(NCCN4CCOCC4)n[nH]c2-3)C(=O)O1` showed an IC50 in series [2] of 1900 nM. The MIC in series [3] is 16 µg/mL (≈ 34.1 µM); in series [4] it was 2 µg/mL (≈ 4.27 µM); in series [5] it was 8 µg/mL (≈ 17.1 µM); in series [6] it was 8 µg/mL (≈ 17.1 µM); in series [7], 16 µg/mL (≈ 34.1 µM).

In turn, `CC(=O)NC[C@H]1CN(c2ccc3c(c2)CCCc2c(NCCc4ccccn4)n[nH]c2-3)C(=O)O1` registered a 50% inhibitory concentration (IC50) in series [2] of 1700 nM. The MIC in series [3] was 8 µg/mL (≈ 17.4 µM); in series [4] it was 0.5 µg/mL (≈ 1.09 µM); in series [5], 1 µg/mL (≈ 2.17 µM); in series [6] it was 8 µg/mL (≈ 17.4 µM); in series [7], 8 µg/mL (≈ 17.4 µM).

`CC(=O)NC[C@H]1CN(c2ccc3c(c2)CCCc2c(NCCc4ccc(O)cc4)n[nH]c2-3)C(=O)O1` registered an IC50 in series [2] of 2100 nM. Besides, the MIC came to 2 µg/mL (≈ 4.21 µM) in series [3]; 0.5 µg/mL (≈ 1.05 µM) in series [4]; 1 µg/mL (≈ 2.1 µM) in series [5]; 4 µg/mL (≈ 8.41 µM) in series [6]; 2 µg/mL (≈ 4.21 µM) in series [7].

In turn, `CC(=O)NC[C@H]1CN(c2ccc3c(c2)CCCc2c(NCCCO)n[nH]c2-3)C(=O)O1` had an IC50 in series [2] of 1800 nM. The MIC turned out to be 8 µg/mL (≈ 19.3 µM) in series [3]; 4 µg/mL (≈ 9.67 µM) in series [4]; 8 µg/mL (≈ 19.3 µM) in series [5]; 16 µg/mL (≈ 38.7 µM) in series [6]; 32 µg/mL (≈ 77.4 µM) in series [7].

Take `COCCCNc1n[nH]c2c1CCCc1cc(N3C[C@H](CNC(C)=O)OC3=O)ccc1-2`: the IC50 in series [2] came out at 2900 nM. Moreover, the MIC in series [3] turned out to be 4 µg/mL (≈ 9.36 µM); in series [4], 1 µg/mL (≈ 2.34 µM); in series [5], 4 µg/mL (≈ 9.36 µM); in series [6] it was 16 µg/mL (≈ 37.4 µM); in series [7], 16 µg/mL (≈ 37.4 µM).

`CC(=O)NC[C@H]1CN(c2ccc3c(c2)CCCc2c(NCCCN)n[nH]c2-3)C(=O)O1`: in series [1], the kinetic solubility was greater than 70 µg/mL. Also, the IC50 in series [2] is 450 nM. The MIC is 32 µg/mL (≈ 77.6 µM) in series [3]; 4 µg/mL (≈ 9.7 µM) in series [4]; 8 µg/mL (≈ 19.4 µM) in series [5]; greater than 64 µg/mL in series [6]; 32 µg/mL (≈ 77.6 µM) in series [7].

The compound `CC(=O)NC[C@H]1CN(c2ccc3c(c2)CCCc2c(NC(=O)C(O)CO)n[nH]c2-3)C(=O)O1` (some centres undefined) displayed a kinetic solubility in series [1] of 46 µg/mL (≈ 104 µM). This compound also showed an IC50 in series [2] of 780 nM. For the same compound, the MIC stood at 16 µg/mL (≈ 36.1 µM) in series [3]; 2 µg/mL (≈ 4.51 µM) in series [4]; 16 µg/mL (≈ 36.1 µM) in series [5]; 32 µg/mL (≈ 72.2 µM) in series [6]; 32 µg/mL (≈ 72.2 µM) in series [7].

On to `CC(=O)NC[C@H]1CN(c2ccc3c(c2)CCCc2c(NCc4ccccc4)n[nH]c2-3)C(=O)O1`, for which the IC50 in series [2] stood at 2000 nM. Further, the MIC amounted to 2 µg/mL (≈ 4.49 µM) in series [3]; 1 µg/mL (≈ 2.24 µM) in series [4]; 1 µg/mL (≈ 2.24 µM) in series [5]; 8 µg/mL (≈ 18 µM) in series [6]; 4 µg/mL (≈ 8.98 µM) in series [7].

Consider `CC(=O)NC[C@H]1CN(c2ccc3c(c2)CCCc2c(NC(=O)CO)n[nH]c2-3)C(=O)O1`, for which the 50% inhibitory concentration (IC50) in series [2] was found to be 1300 nM. The MIC in series [3] is 16 µg/mL (≈ 38.7 µM); in series [4] it was 4 µg/mL (≈ 9.68 µM); in series [5] it was 4 µg/mL (≈ 9.68 µM); in series [6], 16 µg/mL (≈ 38.7 µM); in series [7], 16 µg/mL (≈ 38.7 µM).
